# Source: US11998534B2, “GPX4 inhibitor in combination with anticancer agent for treating proliferative disease” (Eubulus Biotherapeutics Inc., priority 2020, dated 2024)
# Read-outs that look alike come from different tables or passages of the source. Peptide text beside a SMILES is read from it. * marks the point of attachment. Cbz = O=C(OCc1ccccc1)*; CH2F = FC*
# What was measured:
# Type in all cases: cell-based
# [1] = test system: cancerous cell lines (e.g., HT-29, Hub-7, or OVCAR-8); test: Cell proliferation assay (CELL-TITER GLO cell viability), Table 1; details: 24 h incubation, cell line not stated
# Protocol: (§1) The activity of a combination of a GPX4 inhibitor (e.g., compound A1, A2, or A3) and a tyrosine kinase inhibitor (e.g., neratinib, regorafenib, or sorafenib) was determined in a cell proliferation assay using cancerous cell lines (e.g., HT-29 (colorectal adenocarcinoma), Hub-7 (hepatocellular carcinoma), or OVCAR-8 (ovarian adenocarcinoma)). Cells of each cell line were seeded in a 96-well tissue culture plate. After incubated overnight, a compound or a combination was added at predetermined concentration(s). After the cells were incubated for 24 h, cell viability was determined using a CELL-TITER GLO® assay. The CELL-TITER GLO® reagent (50 μL) was added to each well and the luminescence was measured by a multimode microplate reader after a brief period of shaking. EC50 values were determined from dose response curves.
# HT-29 cells = test: Cell viability assay with ferroptosis/apoptosis inhibitor rescue, HT-29 cells (FIGS. 4-6); details: GPX4 inhibitor 100 nM + sorafenib C1 3 μM
# Protocol: as §1
# Huh-7 cells = test: Cell viability assay with ferroptosis/apoptosis inhibitor rescue, Huh-7 cells (FIGS. 1-3); details: GPX4 inhibitor 100 nM + sorafenib C1 3 μM
# Protocol: as §1
# [2] = GPX4 inhibitor alone, read-out: Inhibition of Cell Proliferation, Monotherapy (EC50)
# [3] = GPX4 inhibitor in combination with C2 (10 μM), read-out: Inhibition of Cell Proliferation, Combination +C2 (10 μM) (EC50)
# [4] = GPX4 inhibitor in combination with C3 (3 μM), read-out: Inhibition of Cell Proliferation, Combination +C3 (3 μM) (EC50)
compound,measurement,setting,value
"COC(=O)c1ccc(C2c3[nH]c4ccccc4c3C[C@H](C(=O)OC)N2C(=O)CCl)cc1 (stereo partly drawn) [A1, methyl (3R)-2-(2-chloroacetyl)-2,3,4,9-tetrahydro-1-(4-(methoxycarbonyl)phenyl)-1H-pyrido[3,4-b]indole-3-carboxylate]",EC50,[1]; [2],8000 nM
same,EC50,[1]; [3],57 nM
same,EC50,[1]; [4],970 nM
"C#CC(=O)N1C(c2ccc(C(=O)OC)cc2)c2[nH]c3ccccc3c2C[C@@H]1CO (stereo partly drawn) [A2, methyl 4-((3R)-3-(hydroxymethyl)-2-propioloyl-2,3,4,9-tetrahydro-1H-pyrido[3,4-b]indol-1-yl)benzoate]",EC50,[1]; [2],22500 nM
same,EC50,[1]; [3],97 nM
same,EC50,[1]; [4],1300 nM
"C#CC(=O)N(c1ccc(OC)c(Cl)c1)C(C(=O)NC(C)(C)C)c1ccc(N)cc1 (stereo not shown) [A3, N-(1-(4-aminophenyl)-2-(tert-butylamino)-2-oxoethyl)-N-(3-chloro-4-methoxyphenyl)propiolamide]",EC50,[1]; [2],5700 nM
same,EC50,[1]; [3],207 nM
same,EC50,[1]; [4],1800 nM
"CCOC(=O)c1ccc(NC2CCCCC2)c(N)c1 [Fer-1, ferrostatin-1]","Rescue from cell death induced by GPX4 inhibitor A1, A2, or A3 in combination with sorafenib C1",HT-29 cells,able to rescue
same,"Rescue from cell death induced by GPX4 inhibitor A1, A2, or A3 in combination with sorafenib C1",Huh-7 cells,able to rescue
"COC(=O)C[C@H](NC(=O)[C@H](C)NC(=O)[C@@H](NC(=O)OCc1ccccc1)C(C)C)C(=O)CF [ZVAD, Z-VAD-FMK] (Cbz-Val-Ala-Asp(OMe)-CH2F)","Rescue from cell death induced by GPX4 inhibitor A1, A2, or A3 in combination with sorafenib C1",HT-29 cells,could not
same,"Rescue from cell death induced by GPX4 inhibitor A1, A2, or A3 in combination with sorafenib C1",Huh-7 cells,could not
